Drawing on a melting point compilation (Tetko et al.; mined from patent text by program, amines drawn as free bases though some values may be those of a salt), this text covers melting point for 89 compounds.

One may read the melting point as the temperature, or range, at which the solid turns liquid. In turn, `N#CC(N=Nc1cc(S(=O)(=O)Cl)ccc1OC(=O)c1ccccc1)=C(OC(=O)c1ccccc1)c1ccccc1` returned a melting point of 153 to 155 °C.
Next, `COc1c(F)cc(-c2cncc(OC3SCC(O)C(O)C3O)c2)cc1F` (centres undefined): 203 °C; `O=C(O)CCc1cc2ccccc2n1S(=O)(=O)c1ccccc1`: 180 to 185 °C.
For the compound `CCN(CC)CCNC(=O)c1cccc2c(=O)c3ccc(I)cc3[nH]c12`, the melting point lay in the range of 208 to 210 °C.
`O=c1[nH]c2c(F)cc([N+](=O)[O-])cc2o1` yielded a melting point of 177 to 179 °C.
Compound `CC(C)c1ccc(-c2cn(C)cc(-c3ccccc3)c2=O)cc1` showed a melting point of 159 °C.
Consider `COC(=O)C1=C(C)NC(C)=C(C(=O)OCCCOc2ccc(CCOC3CCCCO3)cc2)C1c1cccc([N+](=O)[O-])c1` (centres undefined), for which the melting point was under 50 °C.
In the case of `CC(=O)SCC(C)C(=O)N(CC(=O)O)C1CCC1` (centres undefined) it was 162 to 164 °C; in that of `CCOC(=O)c1c(N2CCN(C(=O)c3cccs3)CC2)c2cnccc2n(CC(=O)c2ccccc2)c1=O`, 157 °C.
In turn, `CCc1cc(C(=O)O)c(S(N)(=O)=O)o1` yielded a melting point of 186 °C.
`CC1(C)COC(Cc2ccc3c(c2)C(=O)c2ccccc2CO3)=N1` came in with a melting point of 101 to 104 °C.
In the case of `COC(=O)C1N(c2c(C)cccc2C)C(=N)C(C)N1c1c(C)cccc1C` (centres undefined) it was 141 to 142 °C.
Next, `O=C(Nc1ccc(-n2nc(C(F)(F)F)cc2C(F)(F)F)cc1)c1ccccc1Cl`: 155 to 157 °C.
In turn, `CCOC(=S)c1ncncc1C` yielded a melting point of 99 to 100 °C.
In the case of `CN(CCOc1cccc2cc(S(=O)(=O)c3ccccc3)n(C(=O)OC(C)(C)C)c12)C(=O)OC(C)(C)C` it was 118 to 120 °C.
In the case of `C[C@@H](O)c1cc2cc(CN3CCOCC3)cc3c(=O)c(C(=O)NCc4ccc(Cl)cc4)cn1c23` it was 75 to 79 °C.
`COc1ccc2c3c1CCCC3C(CN1CCN(C)CC1)CC2` (centres undefined): the melting point was 115 to 116 °C.
`O=C(O)C(O)=CC(=O)c1cn(Cc2ccccc2)cc(Cc2ccccc2)c1=O`: the melting point is 140 to 142 °C.
`CC(O)=C(C#N)CC(=O)Nc1ccc(OCCCI)cc1` registered a melting point of 149 °C.
Compound `O=C1[C@H]2CCCC[C@H]2C(=O)N1Cc1ccncc1` gave a melting point of 91 to 92 °C.
`COC(NC(C)=O)(C(=O)O)C(Br)Br` (centres undefined) displayed a melting point of 143 to 144 °C.
In turn, `OCCC1(c2ccc(Cl)c(Cl)c2)CNCCO1` (centres undefined) had a melting point of 90 to 91 °C.
For `C=CCn1c(C)c(C)c2cnnc(OCc3cccc(F)c3)c21`, the melting point lay within 85 to 86 °C.
For `CC(=O)N[C@H](Cc1ccc(C(=O)c2ccccc2)cc1)C(=O)O`, the melting point fell in the range of 186 to 187 °C.
In the case of `N#Cc1cc2ccccc2cc1O` it was 188 to 189 °C; in that of `Nn1c(C(F)(F)F)cc(=O)n(-c2cc([N+](=O)[O-])c(Br)cc2F)c1=O`, 165 °C; in that of `Clc1ccc2ncc3nc(Br)n(-c4ccccc4Cl)c3c2c1`, 183 to 192 °C.
Consider `Nc1cc(N2C(=O)COc3ccccc32)ccn1`, for which the melting point lay in the range of 189 to 190 °C.
As to `CCOC(=O)c1c(CC)ncnc1NCCc1ccc(CCO)cc1`, the melting point was in the range of 68 to 71 °C.
`NC(=O)c1nccn1C1Cc2ccccc2C1=O` (centres undefined) showed a melting point of 183 °C.
Turning to `Fc1ccc(Cn2c(NC3CCN(CCc4ccccc4)C3)nc3ccccc32)cc1` (centres undefined), the melting point came to 126 °C.
For the compound `CSC1=NC2=NC3=C(CN2N1)C(Cc1ccccc1)CNC3=O` (centres undefined), the melting point was 232 to 234 °C.
For `CCCN(CCC)C(=O)Cc1c(-c2ccc(Cl)cc2)nn2cccnc12`, the melting point was in the range of 104 to 106 °C.
In the case of `COC(=O)CCC(=O)c1ccc2c(c1)CC(CO)O2` (centres undefined) it was 70 to 72 °C; in that of `CC(C(=O)NCC(F)(F)C(F)(F)F)C(=O)NC1C(=O)Nc2cc(F)ccc2OC1C` (centres undefined), 215 to 216 °C.
With `CCSC1(c2ccc(Cl)cc2)OC(c2ccncc2)=Nc2ccccc21` (centres undefined), the melting point lay within 138 to 139 °C.
Turning to `OC(Cn1cncn1)(c1ccc(Oc2ccc(Cl)cc2)cc1Cl)C1CC1` (centres undefined), the melting point was 170 °C.
Next, `CC(O)(c1ccsc1)c1nccs1` (centres undefined): 120 to 122 °C; `NC(=O)c1ncn2c(-c3ccc(Cl)c(Cl)c3)ccnc12`: 302 to 304 °C; `CC1(C)CC(=O)CC(=O)N1`: 183 to 184 °C.
In the case of `CC#CCOc1cc(/C=C/C(=O)Nc2cc(Cl)ccc2C(=O)NC)ccc1OC`, the melting point lay within 172 to 173 °C.
In the case of `CN(C)Cc1c(-c2ccc(OC(F)F)c(OC3CC3)c2)[nH]c2cn[nH]c(=O)c12`, the melting point is 154 to 157 °C.
Turning to `O=[N+]([O-])c1cccnc1Sc1ncccn1`, the melting point fell in the range of 122 to 124 °C.
`CCOC(=O)c1ccc(COc2cccc3oc(C)cc23)cc1` registered a melting point of 59 to 61 °C.
Regarding `O=C(O)c1cnn2c(C(F)F)cc(-c3ccc(C(F)(F)F)c(Cl)c3)nc12`, the melting point came to 216 °C.
The compound `Cc1cc(-c2ccc(Cl)cc2)nc(-n2cnc(-c3ccc(S(N)(=O)=O)cc3)c2)n1` yielded a melting point of 312 °C.
`CC#COc1ccc2c(C)cc(=O)oc2c1`: the melting point lay within 140 to 141 °C.
With `O=C(O)CCC(CCCCNS(=O)(=O)c1ccc(Cl)cc1)CCOc1cccnc1` (centres undefined), the melting point lay in the range of 86 to 88 °C.
`CC(=O)c1cccc(OC2SCC(O)C(O)C2O)c1` (centres undefined) yielded a melting point of 166 to 174 °C.
Compound `COc1ccc2c(c1)C(c1ccc(N)cc1)=NN(C(=O)C1CC1)C(C)=C2` showed a melting point of 214 to 216 °C.
On to `c1ccc2c(c1)nc1n2CCCO1`, for which the melting point was 116 to 118 °C.
`O=C(CCn1c(=O)c(=O)[nH]c2cc(C(F)(F)F)c(-n3cccc3)cc21)NCc1ccccc1` showed a melting point of 234 to 235 °C.
The compound `CC#CCOc1ccc(S(=O)(=O)N(C)[C@H]2CCC[C@H]2C(=O)NO)cc1` came in with a melting point of 160 to 164 °C.
In the case of `CCOC(=O)Cc1c(-c2cccnc2)c2cc(CN3CCN(c4ccccc4)CC3)c(Cl)cc2oc1=O` it was 153 to 157 °C; in that of `Cc1nc2ncnn2c2c1CCN2CC(C)C`, 143 to 145 °C; in that of `CC1(CN2CCN(N=Cc3ccc(OC(F)(F)F)cc3)CC2)Cn2cc([N+](=O)[O-])nc2O1` (centres undefined), 189 to 191 °C.
With `Cc1cc2c3c(ccc(N4CCCC4)c3c1)C(=O)N(O)C2=O`, the melting point was 236 to 237 °C.
Compound `CCCC(=O)C(=O)NCC(=O)c1cccnc1` came in with a melting point of 80 to 82 °C.
Compound `CN(C)c1ccc(NC(=O)C(C#N)C(=O)c2nn(-c3ccccc3)c3c2CSc2ccccc2-3)cc1` (centres undefined) yielded a melting point of 215 to 216 °C.
`COc1ccc(Nc2nc(-c3ccccc3)c(-c3nc4ccccc4c(=O)n3-c3ccc(Cl)cc3)s2)cc1` came in with a melting point of 262 to 263 °C.
The compound `CCOC(=O)c1cn(C2CC2)c2nc(N3C[C@@H](CNC(C)=O)[C@H](F)C3)c(F)cc2c1=O` (relative stereo) returned a melting point of 211 to 213 °C.
Consider `CON=C1CN(c2nc3c(cc2F)c(=O)c(C(=O)O)cn3C2CC2)CC12CN(C)C2`, for which the melting point fell in the range of 225 to 227 °C.
Regarding `CS(=O)(=O)c1cccc(NC(=O)c2cnn3c(C(F)(F)F)cc(-c4ccc(C(F)(F)F)cc4)nc23)c1`, the melting point worked out at 259 °C.
Compound `CC1(C)COc2ccc(C(N)=O)cc21` showed a melting point of 136 to 138 °C.
Compound `COc1ccc(-c2nc(C)c(C(N)=O)s2)cc1` came in with a melting point of 180 °C.
Compound `O=C(CCc1ccccc1)N[C@H](Cc1ccc(Oc2ccccc2)cc1)[C@@H](O)c1ccc(F)cc1` (racemic) returned a melting point of 108 to 110 °C.
As for `COc1cc(C=O)ccc1OCc1sc(-c2ccccc2)nc1C`, the melting point lay within 118 to 119 °C.
In the case of `FC1=Cc2ccccc2Nc2ccccc21` it was 69 to 72 °C; in that of `COc1cc(I)c(Oc2cnc(N)nc2N)cc1I`, 136 to 138 °C; in that of `COc1cccc(NC(=O)C(C)(C)C)c1CCO`, 118 to 120 °C.
Turning to `COC(=O)c1ncoc1-c1cc(OC)c(OC)c(OC)c1`, the melting point was in the range of 175 to 176 °C.
In the case of `CCCCCCCCCCCCCCCCCCOc1cccc(NCC(=O)O)c1`, the melting point is 92 °C.
In turn, `CN(C)c1[nH]c(=S)n(C2CCc3ccccc3C2)c1N(C)C` (centres undefined) returned a melting point of 182 to 184 °C.
Compound `CC1(C)N=C(S)N=C(N)N1` registered a melting point of 186 to 188 °C.
Compound `O=C(COc1cccc(CCNS(=O)(=O)c2ccc(Cl)cc2)c1)N1CCOCC1` returned a melting point of 110 to 111 °C.
As for `CCOC(=O)CCc1ccc(CBr)cc1`, the melting point came out at 132 °C.
In the case of `CCCCN(CCCC)c1ccc(C=CC2=CC(=CC=CC3=C(C#N)C(=C(C#N)C#N)OC3(C)C(F)(F)F)CC(C)(C)C2)c(OC)c1` (centres undefined) it was 196 to 201 °C; in that of `CCC(CC)N1CCC(CNc2ccc(Cl)cc2C(=O)Nc2ccc(Cl)cn2)CC1`, 136 to 138 °C.
Turning to `Cc1ccc(-c2ccc(F)cc2)cc1-c1c(O)c(C)nn(C)c1=O`, the melting point is 216 to 217 °C.
In turn, `CC1(C)Oc2cccc(S(N)(=O)=O)c2O1` gave a melting point of 100 to 112 °C.
Regarding `O=C(NOCC(O)CN1CCCCC1)c1cccc2ccccc12` (centres undefined), the melting point was in the range of 104 to 107 °C.
Next, `COc1cc(C(C#N)O[Si](C)(C)C(C)(C)C)cc(OC)c1OC` (centres undefined): 43 °C; `CCCCc1nc(=O)c2ccc(C(=O)OCC)cc2[nH]1`: 145 °C; `O=c1[nH]c2cc(Cl)ccc2c(O)c1-c1ccc([N+](=O)[O-])cc1`: over 350 °C.
Regarding `CC(C)C(NC(=O)N(C)Cc1ccccn1)C(=O)N(C(=O)C(NC(=O)N(C)Cc1nccs1)C(C)C)C(Cc1ccccc1)CC(O)CCc1ccccc1` (centres undefined), the melting point lay in the range of 156 to 158 °C.
Next, `COc1ccc2nccc(NC(=O)N3CCN(CCc4cnc5ccccc5n4)CC3)c2n1`: 138 to 140 °C; `CCOC(=O)c1cc(-c2ocnc2C)[nH]n1`: 131 to 133 °C; `O=C(Nc1cc(C(F)(F)F)ccc1N1CCc2ccccc21)c1ccccc1F`: 127 to 130 °C.
For the compound `Clc1nc(-n2cnc(-c3ccccc3)c2-c2ccccc2)c2ccccc2c1-c1ccccc1`, the melting point fell in the range of 195 to 196 °C.
